In ChEMBL document CHEMBL1201862, “PubChem BioAssay data set” (2004):
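Growth conditions: 96-well plates. Treatment: test compound, 48 hours, 5 concentrations. Analysis: linear interpolation between bracketing concentrations; unreached endpoints set to highest concentration. Abbreviation: GI50, concentration required for 50% inhibition of growth.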 Activity calls are given as the source filed them. No stated cut-off is given here; in the data, active = GI50 up to about 1.1 µM and inactive = higher.

Assays:
Experiment in all cases: inhibition of tumour cell growth, NCI panel, 48 h
UACC-62 = tested on: UACC-62
RPMI-8226 = tested on: RPMI-8226
SK-MEL-28 = tested on: SK-MEL-28
ACHN = tested on: ACHN
SK-MEL-5 = tested on: SK-MEL-5
HCT-15 = tested on: HCT-15
NCI-H226 = tested on: NCI-H226
K562 = tested on: K562
EKVX = tested on: EKVX
OVCAR-5 = tested on: OVCAR-5
OVCAR-4 = tested on: OVCAR-4
HT-29 = tested on: HT-29
SF-268 = tested on: SF-268
MOLT-4 = tested on: MOLT-4
HL-60 = tested on: HL-60
OVCAR-8 = tested on: OVCAR-8
SR = tested on: SR
KM12 = tested on: KM12

| SMILES | GI50 (UACC-62) | GI50 (RPMI-8226) | GI50 (SK-MEL-28) | GI50 (ACHN) | GI50 (SK-MEL-5) | GI50 (HCT-15) [µM] | GI50 (NCI-H226) | GI50 (K562) | GI50 (EKVX) | GI50 (OVCAR-5) | GI50 (OVCAR-4) | GI50 (HT-29) | GI50 (SF-268) | GI50 (MOLT-4) | GI50 (HL-60) | GI50 (OVCAR-8) | GI50 (SR) | GI50 (KM12) |
| --- | --- | --- | --- | --- | --- | --- | --- | --- | --- | --- | --- | --- | --- | --- | --- | --- | --- | --- |
| O=C(CC1(O)C(=O)Nc2ccccc21)c1ccco1 (centres undefined) | > 100 µM (inactive) | > 100 µM (inactive) | > 100 µM (inactive) | > 100 µM (inactive) | > 100 µM (inactive) | > 100 | > 100 µM (inactive) | > 100 µM (inactive) | > 100 µM (inactive) | > 100 µM (inactive) | > 100 µM (inactive) | > 100 µM (inactive) | > 100 µM (inactive) | > 100 µM (inactive) | > 100 µM (inactive) | > 100 µM (inactive) |  |  |
| COc1ccc(NC(=O)CC(=O)n2nc(-c3ccccc3)c(/N=N/c3ccccc3C(=O)O)c2-c2ccccc2)cc1 | > 100 µM (inactive) | > 100 µM (inactive) | 74.5 µM (inactive) | > 100 µM (inactive) | > 100 µM (inactive) | > 100 | 69.3 µM (inactive) | 52.7 µM (inactive) | 34.6 µM (inactive) | > 100 µM (inactive) | 92.5 µM (inactive) |  | > 100 µM (inactive) | 40.6 µM (inactive) |  | 25.2 µM (inactive) | 62.2 µM (inactive) | > 100 µM (inactive) |
| Nc1nc(SCc2ccccc2Cl)c2ncn(C3OC(CO)C(O)C3O)c2n1 (centres undefined) | 72.3 µM (inactive) | 56 µM (inactive) | 69.2 µM (inactive) | > 100 µM (inactive) | 54.2 µM (inactive) | > 100 |  | 57 µM (inactive) |  | > 100 µM (inactive) | 74.3 µM (inactive) | > 100 µM (inactive) | 80.4 µM (inactive) | 49.3 µM (inactive) | 50.5 µM (inactive) | 89.9 µM (inactive) | 42.7 µM (inactive) | > 100 µM (inactive) |
| COC1/C(=C\C(C)=O)c2ccccc2N1C(C)=O (centres undefined) | > 100 µM (inactive) | > 100 µM (inactive) | > 100 µM (inactive) | > 100 µM (inactive) |  | > 100 |  | > 100 µM (inactive) | > 100 µM (inactive) |  | > 100 µM (inactive) | > 100 µM (inactive) |  | > 100 µM (inactive) | > 100 µM (inactive) | > 100 µM (inactive) | > 100 µM (inactive) | > 100 µM (inactive) |
| CCOC(=O)C/C(=N\c1cc(C)on1)N(CC)CC.[O-][Cl+3]([O-])([O-])O | > 100 µM (inactive) | > 100 µM (inactive) | > 100 µM (inactive) | > 100 µM (inactive) | > 100 µM (inactive) | > 100 | > 100 µM (inactive) | > 100 µM (inactive) | > 100 µM (inactive) | > 100 µM (inactive) |  | > 100 µM (inactive) | > 100 µM (inactive) | > 100 µM (inactive) |  | > 100 µM (inactive) | > 100 µM (inactive) | > 100 µM (inactive) |
| NC1=NC(=O)C(CC(=O)Nc2ccc([N+](=O)[O-])cc2[N+](=O)[O-])S1 (centres undefined) | > 100 µM (inactive) | > 100 µM (inactive) | > 100 µM (inactive) | > 100 µM (inactive) | > 100 µM (inactive) |  | > 100 µM (inactive) |  | > 100 µM (inactive) | > 100 µM (inactive) | > 100 µM (inactive) | > 100 µM (inactive) | > 100 µM (inactive) | > 100 µM (inactive) | 83.2 µM (inactive) | > 100 µM (inactive) |  | > 100 µM (inactive) |
| CC(=O)CC(=O)CCCC(=O)Nc1ccc(Cl)cc1C | > 100 µM (inactive) | > 100 µM (inactive) |  | > 100 µM (inactive) | > 100 µM (inactive) | > 100 | > 100 µM (inactive) | > 100 µM (inactive) | > 100 µM (inactive) | > 100 µM (inactive) | > 100 µM (inactive) | > 100 µM (inactive) | > 100 µM (inactive) | > 100 µM (inactive) | > 100 µM (inactive) | > 100 µM (inactive) |  | > 100 µM (inactive) |
